This is an account of results in publication PMC10709440, “High-throughput ligand profile characterization in novel cell lines expressing seven heterologous insect olfactory receptors for the detection of volatile plant biomarkers” (Scientific Reports, 2023).

The target in one experiment is T1, Drosophila OR49b (Drosophila melanogaster, UniProt Q9V6H2).
T1 construct: expressed in transfected cells
T1 sequence (Q9V6H2 1-375): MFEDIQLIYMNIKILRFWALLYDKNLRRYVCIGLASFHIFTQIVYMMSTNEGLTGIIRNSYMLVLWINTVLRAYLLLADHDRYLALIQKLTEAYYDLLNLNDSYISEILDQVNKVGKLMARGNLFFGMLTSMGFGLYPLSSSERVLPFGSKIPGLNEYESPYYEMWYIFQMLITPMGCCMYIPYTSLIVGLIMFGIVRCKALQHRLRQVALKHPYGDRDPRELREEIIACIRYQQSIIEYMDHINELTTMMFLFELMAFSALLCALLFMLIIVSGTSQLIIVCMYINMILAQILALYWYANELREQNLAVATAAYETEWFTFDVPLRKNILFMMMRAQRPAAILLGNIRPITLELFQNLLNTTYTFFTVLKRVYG
T1 sequence (Q9VNB5 1-486 partner): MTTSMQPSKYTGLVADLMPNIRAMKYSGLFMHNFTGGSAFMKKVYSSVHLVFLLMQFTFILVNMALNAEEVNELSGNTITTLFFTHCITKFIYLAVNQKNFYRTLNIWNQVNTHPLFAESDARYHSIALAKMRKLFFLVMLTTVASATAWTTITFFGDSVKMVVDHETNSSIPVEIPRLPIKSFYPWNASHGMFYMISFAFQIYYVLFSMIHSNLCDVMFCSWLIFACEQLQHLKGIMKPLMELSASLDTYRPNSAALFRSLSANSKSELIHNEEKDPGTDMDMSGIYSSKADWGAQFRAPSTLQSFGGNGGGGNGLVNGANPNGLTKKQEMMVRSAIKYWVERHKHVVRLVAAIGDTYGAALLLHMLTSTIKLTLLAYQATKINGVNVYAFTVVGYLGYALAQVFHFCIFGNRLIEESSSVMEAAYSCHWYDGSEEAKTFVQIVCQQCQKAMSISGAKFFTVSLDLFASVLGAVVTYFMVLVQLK
In words: cell-based. To be noted: for Average response / OR49b response (VUAA1-normalized) at 1 μM / OR49b response (VUAA1-normalized) at 10 μM / OR49b response (VUAA1-normalized) at 100 μM: OR49b cell line; for Average response: mean of biological replicates; for DF norm AVERAGE OR49b: threshold 0.05, below shown as 0. In short, it runs like this:
(§1)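 HEK293 lines stably expressing each Drosophila OR with GCaMP6, doxycycline-induced (1 μg/mL) 48 or 72 h. Fluorescence recorded 5 s baseline then 30 s after VOC injection at pH 7.3; ΔF=(FMAX−F0)/F0, normalized to 50 µM VUAA1 response per line, triplicate wells averaged; concentration series 0.01–100 μM.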

The next experiment concerns the target T2, Drosophila OR71a (Drosophila melanogaster, UniProt Q9VUK5).
T2 construct: expressed in transfected cells
T2 sequence (Q9VUK5 1-378): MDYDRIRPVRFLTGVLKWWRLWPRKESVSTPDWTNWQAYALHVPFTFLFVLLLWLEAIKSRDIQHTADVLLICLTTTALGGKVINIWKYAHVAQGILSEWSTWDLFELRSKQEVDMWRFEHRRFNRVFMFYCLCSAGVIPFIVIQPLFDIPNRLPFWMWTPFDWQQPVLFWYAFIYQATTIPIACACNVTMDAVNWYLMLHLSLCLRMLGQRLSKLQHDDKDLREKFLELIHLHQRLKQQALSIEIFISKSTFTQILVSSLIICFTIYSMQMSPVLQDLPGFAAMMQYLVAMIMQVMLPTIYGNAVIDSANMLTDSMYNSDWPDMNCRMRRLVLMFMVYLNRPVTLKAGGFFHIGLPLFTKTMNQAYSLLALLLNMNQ
T2 sequence (Q9VNB5 1-486 partner): T1 sequence (Q9VNB5 1-486 partner)
In words: Calcium ion fluorescence (GCaMP6) assay, OR71a stable HEK293 cell line. On the set-up: key to DF norm AVERAGE OR71a: VOC ∆F divided by the plate's mean ∆F response to 50 µM VUAA1. The settings on record: for activation at 1 µM / activation at 10 µM / activation at 100 µM: HEK293, read-out: OR71a response (VUAA1-normalized response); for Average response / OR71a response (VUAA1-normalized) at 1 μM / OR71a response (VUAA1-normalized) at 10 μM / OR71a response (VUAA1-normalized) at 100 μM: OR71a cell line; for Average response: VUAA1-normalized response, mean of biological replicates; for OR71a response (VUAA1-normalized) at 1 μM: VOC concentration 1 μM; for OR71a response (VUAA1-normalized) at 10 μM: VOC concentration 10 μM; for OR71a response (VUAA1-normalized) at 100 μM: VOC concentration 100 μM. Type of experiment: cell-based. In short, it runs like this:
as §1

Where [1] appears, read: HEK293, read-out: OR49b Average response (VUAA1-normalized).
Setting [2] is: HEK293, read-out: OR49b response (VUAA1-normalized response).
Where [3] appears, read: ligand concentration 1 (unit not given).
The mark [4] stands for this setting: ligand concentration 10 (unit not given).
Setting [5] is: ligand concentration 100 (unit not given).
[6] abbreviates: ligand concentration 1 (unit not given), threshold 0.05, below shown as 0.
Where [7] appears, read: ligand concentration 10 (unit not given), threshold 0.05, below shown as 0.
The mark [8] stands for this setting: ligand concentration 100 (unit not given), threshold 0.05, below shown as 0.

Each structure is given as a SMILES string. Read-outs that look alike come from different tables or passages of the source.

For `CCc1ccccc1` [ethylbenzene], the activation at 1 µM was determined as 5% at Drosophila OR49b (setting [1]), 5% on Drosophila OR49b (setting [2]) and 0% on Drosophila OR71a. The activation at 10 µM is 9% at Drosophila OR49b (setting [1]), 9% on Drosophila OR49b (setting [2]) and 0% at Drosophila OR71a. Besides, the activation at 100 µM on Drosophila OR49b (setting [1]) was found to be 33%; on Drosophila OR49b (setting [2]) it was 33%; at Drosophila OR71a, 0%. Also, the Average response came to 0.05 at Drosophila OR49b (odorant cc. 1 µM); 0.09 at Drosophila OR49b (odorant cc. 10 µM); 0.33 at Drosophila OR49b (odorant cc. 100 µM); 0.023 on Drosophila OR71a (cc. 1 µM); 0.0127 on Drosophila OR71a (cc. 10 µM); 0.0277 on Drosophila OR71a (cc. 100 µM). Also, the “DF norm AVERAGE OR49b” value at Drosophila OR49b (setting [3]) worked out at 0.05039; on Drosophila OR49b (setting [4]) it was 0.08967; on Drosophila OR49b (setting [5]), 0.3273. The “DF norm AVERAGE OR71a” value at Drosophila OR71a (setting [6]), on Drosophila OR71a (setting [7]) and on Drosophila OR71a (setting [8]) was 0 in each case.

In the case of `OCCc1ccccc1` [phenethyl alcohol], the “OR49b response (VUAA1-normalized) at 1 μM” value on Drosophila OR49b (VOC concentration 1 μM) was determined as 0.00. For the same compound, the “OR49b response (VUAA1-normalized) at 10 μM” value at Drosophila OR49b (VOC concentration 10 μM) amounted to 0.00. For the same compound, the “OR49b response (VUAA1-normalized) at 100 μM” value on Drosophila OR49b (VOC concentration 100 μM) is reported as 0.09. Also, the Average response on Drosophila OR49b (odorant cc. 1 µM) is 0.0257; at Drosophila OR49b (odorant cc. 10 µM) it was 0.00; at Drosophila OR49b (odorant cc. 100 µM) it was 0.09; on Drosophila OR71a (cc. 1 µM), 0.09; on Drosophila OR71a (cc. 10 µM), 0.03; on Drosophila OR71a (cc. 100 µM), 0.0218. In addition, the “DF norm AVERAGE OR49b” value on Drosophila OR49b (setting [3]) came to 0; on Drosophila OR49b (setting [4]), 0; at Drosophila OR49b (setting [5]), 0.09318. Besides, at Drosophila OR71a, the “OR71a response (VUAA1-normalized) at 1 μM” value is 0.09. For the same compound, at Drosophila OR71a, the “OR71a response (VUAA1-normalized) at 10 μM” value turned out to be 0.00. In addition, the “OR71a response (VUAA1-normalized) at 100 μM” value at Drosophila OR71a amounted to 0.00. For the same compound, the figures for the “DF norm AVERAGE OR71a” value on Drosophila OR71a (setting [6]), on Drosophila OR71a (setting [7]) and on Drosophila OR71a (setting [8]) were 0.08619, 0 and 0, respectively.

`CCCCCCCCC(CO)CCCCCC` (stereo not drawn) [2-hexyl-1-decanol]: the activation at 1 µM on Drosophila OR49b (HEK293, VOC concentration 1 μM, read-out: OR49b response (VUAA1-normalized response)) is 0%; on Drosophila OR71a, 0%. For the same compound, the activation at 10 µM on Drosophila OR49b (HEK293, VOC concentration 10 μM, read-out: OR49b response (VUAA1-normalized response)) was 0%; on Drosophila OR71a, 0%. Besides, the activation at 100 µM on Drosophila OR49b (HEK293, VOC concentration 100 μM, read-out: OR49b response (VUAA1-normalized response)) came to 8.56%; at Drosophila OR71a, 0%. Further, the Average response on Drosophila OR49b (odorant cc. 1 µM) came to 0.00; on Drosophila OR49b (odorant cc. 10 µM), 0.00; on Drosophila OR49b (odorant cc. 100 µM), 0.0856; on Drosophila OR71a (cc. 1 µM) it was 0.00; on Drosophila OR71a (cc. 10 µM), 0.00; on Drosophila OR71a (cc. 100 µM), 0.00. Also, the “DF norm AVERAGE OR71a” value worked out at 0 on Drosophila OR71a (concentration 1, normalized fluorescence change, values below 0.05 threshold given as 0); 0 on Drosophila OR71a (concentration 10, normalized fluorescence change, values below 0.05 threshold given as 0); 0 on Drosophila OR71a (concentration 100, normalized fluorescence change, values below 0.05 threshold given as 0).

As for `CCCOC(C)=O` [propyl acetate], the “OR49b response (VUAA1-normalized) at 1 μM” value at Drosophila OR49b (VOC concentration 1 μM) was determined as 0.00. Also, at Drosophila OR49b (VOC concentration 10 μM), the “OR49b response (VUAA1-normalized) at 10 μM” value came out at 0.00. For the same compound, the “OR49b response (VUAA1-normalized) at 100 μM” value at Drosophila OR49b (VOC concentration 100 μM) was 0.00. Moreover, the Average response was 0.00 at Drosophila OR49b (odorant cc. 1 µM); 0.00 at Drosophila OR49b (odorant cc. 10 µM); 0.014 on Drosophila OR49b (odorant cc. 100 µM); 0.0434 at Drosophila OR71a (cc. 1 µM); 0.025 at Drosophila OR71a (cc. 10 µM); 0.00 on Drosophila OR71a (cc. 100 µM). Also, the “DF norm AVERAGE OR49b” value at Drosophila OR49b (setting [3]), on Drosophila OR49b (setting [4]) and on Drosophila OR49b (setting [5]) was 0 throughout. Also, the “OR71a response (VUAA1-normalized) at 1 μM” value on Drosophila OR71a was 0.00. The “OR71a response (VUAA1-normalized) at 10 μM” value on Drosophila OR71a is on record as 0.00. Also, the “OR71a response (VUAA1-normalized) at 100 μM” value at Drosophila OR71a turned out to be 0.00. For the same compound, the “DF norm AVERAGE OR71a” value on Drosophila OR71a (setting [6]), on Drosophila OR71a (setting [7]) and on Drosophila OR71a (setting [8]) was 0 in each case.
